The target in data set [1] is T1, wild-type His6-tagged H-Ras (1-166) pre-loaded with GDP (Homo sapiens, UniProt P01112).
T1 construct: wild-type and mutant His6-tagged H-Ras (1-166) pre-loaded with GDP; made in house; host or cells: Escherichia coli (BL21)
The data set can be described thus: Fluorescence polarization binding assay, wild-type H-Ras-GDP. The text has this:
GTP of the Ras-specific nucleotide exchange factor SOS. Cell 112, 685-695 (2003).
On the technique in general: Polarisation of emitted light reports the rotation of a fluorescent probe.

Data set [2] has as its target G12C mutant H-Ras pre-loaded with GDP (Homo sapiens, UniProt P01112, G12C). How it is done: (§1) Wild-type and mutant N-terminal His6-H-Ras (residues 1-166) in pProEx HTb expression vector were expressed in Escherichia coli (BL21). Cells were grown at 37 ° C. to an absorbance of 0.7 at 600 nm. Protein expression was induced with 500 μM isopropyl β-D-1-thiogalactopyranoside (IPTG) for 6 hours at 30° C. or overnight at 18° C. The bacterial cells were pelleted via centrifugation at 4500 rpm for 15 minutes. Bacterial pellets were resuspended in a lysis buffer containing 20 mM Tris pH 7.4, 300 mM NaCl, 2 mM 2-mercaptoethanol, and a complete, EDTA-free protease inhibitor cocktail (Roche). The lysis, elution and dialysis buffers were also supplemented with 2.5 mM MgCl2. The resuspended pellets were sonicated using a Branson Cell Disrupter 200. Clarified lysates were formed upon centrifugation at 13,000 rpm for 20 minutes at 4° C. and incubated with charged Ni-NTA resin (Invitrogen) at 4° C. for 1 hour. The resin beads were washed five times with resuspension buffer containing 5 mM imidazole. The His6-tagged proteins were eluted via gravity flow with buffer containing 200 mM imidazole in buffer containing 20 mM Tris, 300 mM NaCl, pH 7.4. Eluted proteins were dialyzed twice against buffer containing 20 mM Tris, 300 mM NaCl, 2.5 mM MgCl2, pH 7.4 for H-Ras. For HSQC and photoaffinity labeling studies, the polyhistidine tag was cleaved using Tobacco Etch Virus (TEV) protease before proceeding to nucleotide loading.
(§2) The generated binding affinity (KD) values for each compound are from biological triplicate studies and were determined via fitting to a sigmoidal dose-response nonlinear regression model on Graphpad Prism 6.

For data set [3], the target named is G12D mutant H-Ras pre-loaded with GDP (Homo sapiens, UniProt P01112, G12D). How it is done: as §1, §2
Data set [4] concerns the target G12V mutant H-Ras pre-loaded with GDP (Homo sapiens, UniProt P01112, G12V). How it is done: as §1, §2
Data set [5] concerns the target T2, wild-type H-Ras-GDP (Homo sapiens, UniProt P01112).
T2 construct: Wild-type and mutant N-terminal His6-H-Ras (residues 1-166) in pProEx HTb expression vector; His6 (N); made in house; host or cells: Escherichia coli (BL21)
The experiment in a line: Microscale thermophoresis (MST), wild-type H-Ras-GDP. It counts as binding. How it is done: Fluorescent labeling of the H-Ras protein was performed using the Monolith Protein Labeling Kit RED-MALEIMIDE 2nd Generation from NanoTemper (MO-L014) or AFDye 647 maleimide fluoroprobes (1122-1). Briefly, 20 nM of H-Ras protein was labeled with 1.5 equivalents of cysteine reactive dye in the 1× PBS under dark for 90 minutes. Labeled Ras proteins were then purified via the kit provided column, and the Degree of Label (DOL) was calculated by using the dye's absorbance and protein's original absorbance. The observed DOL value after the labeling for wild-type H-Ras-GDP was 0.43 and G12V H-Ras-GDP was 0.98.
MST binding assays were conducted with NanoTemper Monolith NT.115 Pico. Assay conditions were optimized with a premium coated capillary tube from NanoTemper to avoid random adsorption. Measurement was performed at 25° C. using 10-15% laser excitation power for 20 seconds. The assay buffer was composed of 50 mM Tris, 100 mM NaCl, and 0.1% pluronic acid. 5-10 nM of the dye labeled protein was exposed to serial dilutions of indicated CHDs and incubated for 90 mins in room temperature before the measurements. Error bars are generated from triplicates. Binding affinities were obtained from the MO analysis software in NT.115 Pico with the following equation:
[formula] [formula] • where, Unbd=Response value of unbound state Bd=Response value of bound state TC=Final concentration of fluorescent molecule

Data set [6] deals with SW780 cells. As to conditions: SW780 cells (oncogenic FGFR3 fusions), 1 μM, 1 h.
Experimental: The indicated cell lines were seeded at 1×10^5 cells/well in clear polystyrene 24-well plates (Corning) and incubated overnight. The initial growth medium is replaced with serum-free medium and incubated for 2 hours at 37° C. Upon aspiration, the cells are incubated in serum-free medium containing 0.4% DMSO (v/v) for one hour. The cells were then treated with 1 μM (final) of fluorescein-conjugated peptides in serum-free medium for another hour while protected from light. All compounds are dissolved as concentrated stocks in DMSO. Each well was aspirated and treated with 1× trypsin (0.25% trypsin, 2.21 mM EDTA, Corning Cellgro) for 10 minutes at 37° C. After trypsinization, the resulting solution was mixed with cold serum-free medium and collected. The samples are centrifuged at 500 rpm for 5 minutes at 4 °C.
The supernatant was removed, and the cell pellets were resuspended with cold PBS before placed on ice. Each sample was treated with 10% trypan blue (v/v) immediately before analysis by flow cytometry on a Becton Dickinson Accuri flow cytometer. The presented data consists of the median fluorescence intensities for at least 10,000 cells/sample and processed using FlowJo (Tree Star Inc.).
The conditions of data set [7]: compared to CHD^Sos-2.
Data set [8] is described as follows: in vitro. The settings on record: bovine, 25% fetal bovine serum.
Experimental: A 45 μL mixture of 33% FBS (v/v) in serum-free medium was prepared for each sample. The addition of 15 μL of indicated peptide in serum-free medium (25% FBS final) per each experiment was recorded as the starting time point. Time points of 5 min, 6 hours, 12 hours, and 24 hours were analyzed in triplicate. Each experiment was quenched at the determined time point by adding 30 μL 100% EtOH, which was prepared at −70° C. After cooling on ice for 10 minutes, each sample was pelleted at 14,000× g for 5 minutes. 30 μL of the supernatant was isolated, and 3 μL of 500 μM L-Tryptophan was titrated into the sample to be used as an internal standard. The resulting mixture was then immediately subjected to RP-HPLC with a C18 3.5 μm 2.1×150 mm analytical column and monitored at 280 nm. Eluting peaks were collected, and the mass of each peak was determined using MALDI-TOF spectroscopy. Integrated peak area of non-degraded peptides was used to determine the percent surviving in each given condition.

The values that follow come from patent publication US20240124539A1, “CROSSLINKED HELIX DIMER MIMICS OF SOS AND METHODS OF USING SAME” (NEW YORK UNIVERSITY, priority 2020, published 2024).

Residues, ends and D or L forms follow the SMILES beside them. A value given as a limit tells only on which side of the number the result lay.

As a reminder, the Kd is the constant that tells how readily two partners part at equilibrium. As a reminder, the half-life is the time needed for the level to fall by half in the phase considered. Read a high half-life as slow decline. As usually defined, the amount remaining is the share of the starting amount still present when the sample was taken. Lower therefore signals more turnover.

T1 sequence (P01112 1-166): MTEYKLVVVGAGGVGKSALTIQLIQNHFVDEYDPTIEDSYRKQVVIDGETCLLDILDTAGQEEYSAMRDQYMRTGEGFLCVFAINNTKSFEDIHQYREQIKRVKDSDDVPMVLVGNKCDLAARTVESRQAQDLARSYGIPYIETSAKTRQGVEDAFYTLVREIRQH
T2 sequence (P01112 1-166): as above
Sequence of G12D mutant H-Ras pre-loaded with GDP (P01112 1-166 G12D): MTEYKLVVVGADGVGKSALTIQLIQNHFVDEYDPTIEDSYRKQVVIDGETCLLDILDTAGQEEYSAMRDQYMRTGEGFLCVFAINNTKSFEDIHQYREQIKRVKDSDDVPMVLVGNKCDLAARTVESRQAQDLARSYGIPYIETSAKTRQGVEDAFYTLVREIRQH
Sequence of G12C mutant H-Ras pre-loaded with GDP (P01112 1-166 G12C): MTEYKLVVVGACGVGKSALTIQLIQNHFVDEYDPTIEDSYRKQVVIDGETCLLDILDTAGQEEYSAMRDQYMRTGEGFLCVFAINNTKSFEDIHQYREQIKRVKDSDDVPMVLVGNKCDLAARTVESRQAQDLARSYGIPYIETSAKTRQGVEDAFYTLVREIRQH
Sequence of G12V mutant H-Ras pre-loaded with GDP (P01112 1-166 G12V): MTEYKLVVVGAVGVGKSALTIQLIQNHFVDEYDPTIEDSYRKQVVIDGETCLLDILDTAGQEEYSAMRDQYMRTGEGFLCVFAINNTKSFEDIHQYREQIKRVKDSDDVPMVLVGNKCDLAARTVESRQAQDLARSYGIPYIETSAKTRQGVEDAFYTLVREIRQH

In the case of `CC[C@H](C)[C@H](NC(=O)[C@H](Cc1c[nH]c2ccccc12)NC(C)=O)C(=O)NCC(=O)N[C@@H](CCCNC(=N)N)C(=O)N[C@@H](CC(C)C)C(=O)N[C@@H](CSCc1ccc(COCc2ccc(CSC[C@H](NC(=O)[C@H](CC(C)C)NC(=O)[C@H](CCCNC(=N)N)NC(=O)[C@H](C)NC(=O)[C@H](CC(C)C)NC(=O)[C@H](CCC(=O)O)NC(=O)[C@H](CCCNC(=N)N)NC(=O)[C@H](CCC(=O)O)NC(=O)[C@H](CC(C)C)NC(=O)[C@H](CCC(=O)O)NC(=O)[C@H](CCCNC(=N)N)NC(=O)[C@H](CC(C)C)NC(=O)[C@H](CCCNC(=N)N)NC(=O)[C@H](Cc3c[nH]c4ccccc34)NC(=O)[C@H](C)NC(=O)[C@H](CC(C)C)NC(C)=O)C(N)=O)cc2)cc1)C(=O)N[C@H](C(=O)N[C@@H](CCC(=O)O)C(=O)N[C@H](C(=O)N[C@@H](CCCCNC(=N)N)C(=O)N[C@@H](CCCNC(=N)N)C(=O)N[C@@H](CC(C)C)C(=O)N[C@@H](CCCNC(=N)N)C(=O)N[C@@H](CC(N)=O)C(=O)NCC(=O)N[C@@H](CC(N)=O)C(N)=O)[C@@H](C)CC)[C@@H](C)O` [CHC^Sos-5] (HELM PEPTIDE1{[ac].L.A.W.R.L.R.E.L.E.R.E.L.A.R.L.C.[am]}|PEPTIDE2{[ac].W.I.G.R.L.C.T.E.I.[N=C(N)NCCCC[C@H](N[*:1])C(=O)[*:2]].R.L.R.N.G.N.[am]}|CHEM1{[c1cc(C[*:1])ccc1COCc1ccc(C[*:2])cc1]}$PEPTIDE1,CHEM1,17:R3-1:R1|PEPTIDE2,CHEM1,7:R3-1:R2$$$V2.0), the Kd in data set [1] came out at 2000 ± 300 nM; in data set [5], 300 ± 100 nM. For the same molecule, the binding affinity result in data set [2], in data set [3] and in data set [4] was “low micromolar affinity range” in each case. In data set [6], the cellular uptake result is listed as “permeable”. Moreover, in data set [7], the aqueous solubility entry is “improves its aqueous solubility”. In data set [8], this molecule showed a half-life greater than 24 h. This molecule also returned a fraction remaining at 24 h in data set [8] of roughly 60%.
